From the NIST ThermoML archive (doi:10.1021/acs.jced.7b00344)
± gives the expanded uncertainty stated by the source.

Tests used:
[1] = Liquid; for viscosity / mass density: 101.3 kPa; for viscosity: Capillary tube (Ostwald / Ubbelohde) method; for mass density: Pycnometric method; for vapor or sublimation pressure: Ebulliometric method (Recirculating still)
[2] = xn = mol fraction of the nth substance listed; details: 101.3 kPa, Liquid, x1 = 1; for viscosity: Capillary tube (Ostwald / Ubbelohde) method; for mass density: Pycnometric method

CC(=O)CCCCl [1-chloro-4-pentanone]
viscosity ([1]; 303.15 K): 1.582 ± 0.033 mPa·s
mass density ([1]; 303.15 K): 1051.3 ± 1.1 kg/m3
viscosity ([1]; 313.15 K): 1.318 ± 0.028 mPa·s
mass density ([1]; 313.15 K): 1041.1 ± 1.1 kg/m3
viscosity ([1]; 323.15 K): 1.078 ± 0.023 mPa·s
mass density ([1]; 323.15 K): 1031.2 ± 1.1 kg/m3
viscosity ([1]; 333.15 K): 0.9667 ± 0.02 mPa·s
mass density ([1]; 333.15 K): 1020.8 ± 1.1 kg/m3
vapor or sublimation pressure ([1]; 343.2 K): 2.91 ± 0.6 kPa
vapor or sublimation pressure ([1]; 353.1 K): 4.66 ± 0.6 kPa
vapor or sublimation pressure ([1]; 363.1 K): 7.15 ± 0.6 kPa
vapor or sublimation pressure ([1]; 373.8 K): 10.5 ± 0.61 kPa
vapor or sublimation pressure ([1]; 393.8 K): 20.79 ± 0.61 kPa
vapor or sublimation pressure ([1]; 404.6 K): 30.23 ± 0.63 kPa
vapor or sublimation pressure ([1]; 413.8 K): 41.16 ± 0.64 kPa
vapor or sublimation pressure ([1]; 423.8 K): 52.6 ± 0.64 kPa
vapor or sublimation pressure ([1]; 433.5 K): 62.27 ± 0.66 kPa
vapor or sublimation pressure ([1]; 438.1 K): 72.35 ± 0.71 kPa
vapor or sublimation pressure ([1]; 443.6 K): 81.58 ± 0.7 kPa
vapor or sublimation pressure ([1]; 449.3 K): 92.85 ± 0.73 kPa
vapor or sublimation pressure ([1]; 454 K): 103.42 ± 0.75 kPa

CC(=O)C1CC1 [1-cyclopropyl ethanone]
vapor or sublimation pressure ([1]; 300 K): 3.65 ± 0.6 kPa
viscosity ([1]; 303.15 K): 0.5572 ± 0.012 mPa·s
mass density ([1]; 303.15 K): 889.8 ± 1.1 kg/m3
vapor or sublimation pressure ([1]; 310.1 K): 6.06 ± 0.6 kPa
viscosity ([1]; 313.15 K): 0.5015 ± 0.011 mPa·s
mass density ([1]; 313.15 K): 880.3 ± 1.1 kg/m3
vapor or sublimation pressure ([1]; 320.8 K): 9.95 ± 0.61 kPa
viscosity ([1]; 323.15 K): 0.4524 ± 0.0096 mPa·s
mass density ([1]; 323.15 K): 870.6 ± 1.1 kg/m3
viscosity ([1]; 333.15 K): 0.3942 ± 0.0085 mPa·s
mass density ([1]; 333.15 K): 861.2 ± 1.1 kg/m3
vapor or sublimation pressure ([1]; 337 K): 20.07 ± 0.62 kPa
vapor or sublimation pressure ([1]; 347.7 K): 30.05 ± 0.64 kPa
vapor or sublimation pressure ([1]; 355.6 K): 40.07 ± 0.66 kPa
vapor or sublimation pressure ([1]; 362.1 K): 49.78 ± 0.69 kPa
vapor or sublimation pressure ([1]; 367.6 K): 59.85 ± 0.71 kPa
vapor or sublimation pressure ([1]; 372.6 K): 70.04 ± 0.74 kPa
vapor or sublimation pressure ([1]; 376.9 K): 80.03 ± 0.78 kPa
vapor or sublimation pressure ([1]; 380.6 K): 89.62 ± 0.81 kPa
vapor or sublimation pressure ([1]; 384.8 K): 101.3 kPa
vapor or sublimation pressure ([1]; 385 K): 102.18 ± 0.83 kPa

CC(=O)C1CC1 [1-cyclopropyl ethanone] + CC(=O)C1CCOC1=O
viscosity ([2]; 303.15 K): 0.5572 ± 0.012 mPa·s
mass density ([2]; 303.15 K): 889.8 ± 1.1 kg/m3
viscosity ([2]; 313.15 K): 0.5015 ± 0.011 mPa·s
mass density ([2]; 313.15 K): 880.3 ± 1.1 kg/m3
viscosity ([2]; 323.15 K): 0.4524 ± 0.0096 mPa·s
mass density ([2]; 323.15 K): 870.6 ± 1.1 kg/m3
viscosity ([2]; 333.15 K): 0.3942 ± 0.0085 mPa·s
mass density ([2]; 333.15 K): 861.2 ± 1.1 kg/m3

CC(=O)C1CCOC1=O (centres undefined) [2-acetylbutyrolactone]
viscosity ([1]; 303.15 K): 3.794 ± 0.079 mPa·s
mass density ([1]; 303.15 K): 1185.7 ± 1.1 kg/m3
viscosity ([1]; 313.15 K): 3.424 ± 0.072 mPa·s
mass density ([1]; 313.15 K): 1178.3 ± 1.1 kg/m3
viscosity ([1]; 323.15 K): 3.067 ± 0.064 mPa·s
mass density ([1]; 323.15 K): 1168.9 ± 1.1 kg/m3
viscosity ([1]; 333.15 K): 2.719 ± 0.057 mPa·s
mass density ([1]; 333.15 K): 1159.4 ± 1.1 kg/m3
vapor or sublimation pressure ([1]; 385 K): 0.552 ± 0.6 kPa
vapor or sublimation pressure ([1]; 395.1 K): 1.02 ± 0.6 kPa
vapor or sublimation pressure ([1]; 405.2 K): 1.77 ± 0.6 kPa
vapor or sublimation pressure ([1]; 415.3 K): 2.92 ± 0.6 kPa
vapor or sublimation pressure ([1]; 425.5 K): 4.61 ± 0.6 kPa
vapor or sublimation pressure ([1]; 434.6 K): 6.98 ± 0.6 kPa
vapor or sublimation pressure ([1]; 445.1 K): 10 ± 0.61 kPa
vapor or sublimation pressure ([1]; 464.5 K): 20 ± 0.61 kPa
vapor or sublimation pressure ([1]; 478.2 K): 30.05 ± 0.62 kPa
vapor or sublimation pressure ([1]; 489.4 K): 40.17 ± 0.64 kPa
vapor or sublimation pressure ([1]; 505.8 K): 60.05 ± 0.65 kPa
vapor or sublimation pressure ([1]; 511.5 K): 69.06 ± 0.68 kPa
vapor or sublimation pressure ([1]; 517.3 K): 78.1 ± 0.68 kPa
vapor or sublimation pressure ([1]; 523.3 K): 88.01 ± 0.71 kPa
vapor or sublimation pressure ([1]; 530.8 K): 103.54 ± 0.73 kPa
vapor or sublimation pressure ([1]; 530.9 K): 101.3 kPa
